Experimental data from US11464763B2, “Parasiticidal compositions comprising an isoxazoline active agent, methods and uses thereof” (BOEHRINGER INGELHEIM ANIMAL HEALTH USA INC., priority 2011, dated 2022).
In brackets after ≈: the same amount, converted by molar mass.

Key:
D. variabilis = test: Efficacious plasma concentration (EC90) against D. variabilis ticks in dogs (Example 13); format: in vivo, Dermacentor variabilis; settings: for EC90 (concentration required to achieve 90% efficacy): plasma concentration
Protocol: Blood samples were collected from all dogs in the study on Days −6, 0 (at 4 h and 12 h), 1, 2, 9, 16, 23, 30, 36, 44, 51, 58, 64, 72, 79 and 86. Plasma samples were analyzed for the concentration of Compound A using an LC/MS/MS analytical method that was GLP validated for the purpose.
(§1) Plasma concentrations of Compound A from dogs in the studies of Examples 1 and 4 were determined according to the description in Example 1, and the plasma concentration versus % efficacy against A. americanum and D. variabilis were fit to a Sigmoidal Emax model. […] Since Compound A is systemically active, the lower concentration of the compound in the plasma required to achieve 90% efficacy from the topical compositions of the invention is surprising and unexpected.

Rhipicephalus sanguineus = test: Spot-on efficacy against Rhipicephalus sanguineus ticks in dogs, three DES formulations (Example 6); format: in vivo; settings: for % Reduction: 48 h count
Protocol: A further study was conducted to examine the efficacy of a topical formulations comprising Compound A in three different formulations containing DES against ticks in dogs. Twenty-four beagles were studied to determine the effectiveness against induced infestations of Rhipicephalus sanguineus of spot-on formulations comprising Cmpd. A in different carriers administered at 4.0 mg/kg to dogs.
Treatment Group 1 dogs were treated with a placebo solution. Treatment Group 2 was treated with a formulation comprising 6% (w/v) Cmpd. A in DES; Treatment Group 3 were treated with a composition comprising 6% (w/v) Cmpd. A in 40% DES/DMI; and Treatment Group 4 were treated with a formulation comprising 6% (w/v) Cmpd. A in DES with 30% Capryol 90. All dogs were treated once topically on Day 0. Topical solutions were applied by parting the hair and applying the solution from a syringe directly onto the skin in a single spot on the midline of the neck between the base of the skull and the shoulder blades.
All dogs were infested with approximately 50 R. sanguineus on Days −1, 7, 14, 21, 28, 35 and 42. Ticks were counted upon removal from dogs on Days 2, 9, 16, 23, 30, 37, and 44. All ticks were counted upon removal at 48 (±3) hours post treatment or infestation.
The percent efficacies of the treated groups compared to the untreated control group were determined for the 48 hour post-treatment/infestation counts. Treatment Group 3 maintained ≥90% efficacy 48 hours after infestation at every sampling time from Day 9 through Day 44. Treatment Group 2 was able to maintain at least 90% efficacy 48 hours after infestation throughout the six weeks of the study.

A. americanum = test: Efficacious plasma concentration (EC90) against A. americanum ticks in dogs (Example 13); format: in vivo, Amblyomma americanum; settings: for EC90 (concentration required to achieve 90% efficacy): plasma concentration
Protocol: Blood samples were collected from all dogs on Days −5, 0 (at 4 h and 12 h), 1, 2, 9, 16, 23, 30, 37 and 44. Plasma samples were analyzed for the concentration of Compound A using a LC/MS/MS method that was GLP validated for the analysis of the compound.
as §1

Ctenocephalides felis = test: Spot-on efficacy against Ctenocephalides felis fleas on dogs, 40% DES/DMI (Example 5); format: in vivo; settings: 4.0 mg/kg
Protocol: The efficacy of a formulation comprising an isoxazoline compound (Cmpd. A) in a carrier comprising 40% DES/DMI against Ctenocephalides felis fleas and Rhipicephalus sanguineus ticks in Dogs was studied. […] Three treatment groups containing three dogs each were evaluated. All dogs were treated once topically on Day 0 by parting the hair and applying the solution from a syringe directly onto the skin in a single spot on the midline of the neck between the base of the skull and the shoulder blades.
Treatment Group 1 was a placebo control and received 0.067 mL/kg of body weight. Treatment Group 2 was administered a topical spot-on formulation comprising 6.0% (w/v) Cmpd. A in 40% DES/DMI to deliver a dose of 4.0 mg/kg body weight. Treatment Group 3 was administered a topical spot-on formulation comprising 12% (w/v) Cmpd. A in 40% DES/DMI to deliver a dose of 4.0 mg/kg body weight.
All dogs were infested with approximately 100 C. felis on Days −1, 7, 14, 21, 28, 35 and 42. Fleas were counted upon removal from dogs approximately 24 hours post infestation on Days 1, 8, 15, 22, 29, 36 and 43. The % reduction (efficacy) of each Treatment Group over time is listed in Tables 6A, 6B and 7, respectively.

[1] = dogs, topical compositions, Sigmoidal Emax model

For `O=C(CNC(=O)c1ccc(C2=NOC(c3cc(Cl)cc(C(F)(F)F)c3)(C(F)(F)F)C2)c2ccccc12)NCC(F)(F)F` (stereo not shown) [Compound A, 4-[5-[3-chloro-5-(trifluoromethyl)phenyl]-4,5-dihydro-5-(trifluoromethyl)-3-isoxazolyl]-N-[2-oxo-2-[(2,2,2-trifluoroethyl)amino]ethyl]-1-naphthalanecarboxamide], the “concentration required to achieve 90% efficacy, lower than the concentration required from oral administration” value (D. variabilis; dogs, topical vs oral) was roughly 36%, the “EC90 (concentration required to achieve 90% efficacy)” value (D. variabilis; [1]) was 0.07 µg/mL (≈ 0.112 µM) and the “EC90 (concentration required to achieve 90% efficacy)” value (D. variabilis; oral dosage form) was 0.11 µg/mL (≈ 0.176 µM). For the same compound, the “% Reduction” value (Rhipicephalus sanguineus; Group 2: 6% in DES, 4.0 mg/kg, Day 2) was 93.2%, the “% Reduction” value (Rhipicephalus sanguineus; Group 2: 6% in DES, 4.0 mg/kg, Day 9) was 100.0% and the “% Reduction” value (Rhipicephalus sanguineus; Group 2: 6% in DES, 4.0 mg/kg, Day 16) was 100.0%. For the same compound, the “% Reduction” value (Rhipicephalus sanguineus; Group 2: 6% in DES, 4.0 mg/kg, Day 23) was 100.0%, the “% Reduction” value (Rhipicephalus sanguineus; Group 2: 6% in DES, 4.0 mg/kg, Day 30) was 97.8% and the “% Reduction” value (Rhipicephalus sanguineus; Group 2: 6% in DES, 4.0 mg/kg, Day 37) was 95.3%. The “% Reduction” value (Rhipicephalus sanguineus; Group 2: 6% in DES, 4.0 mg/kg, Day 44) was 97.5%, the “% Reduction” value (Rhipicephalus sanguineus; Group 3: 6% in 40% DES/DMI, 4.0 mg/kg, Day 2) was 72.8% and the “% Reduction” value (Rhipicephalus sanguineus; Group 3: 6% in 40% DES/DMI, 4.0 mg/kg, Day 9) was 100.0%. The “% Reduction” value (Rhipicephalus sanguineus; Group 3: 6% in 40% DES/DMI, 4.0 mg/kg, Day 16) was 100.0%, the “% Reduction” value (Rhipicephalus sanguineus; Group 3: 6% in 40% DES/DMI, 4.0 mg/kg, Day 23) was 100.0% and the “% Reduction” value (Rhipicephalus sanguineus; Group 3: 6% in 40% DES/DMI, 4.0 mg/kg, Day 30) was 100.0%. For the same compound, the “% Reduction” value (Rhipicephalus sanguineus; Group 3: 6% in 40% DES/DMI, 4.0 mg/kg, Day 37) was 93.5%, the “% Reduction” value (Rhipicephalus sanguineus; Group 3: 6% in 40% DES/DMI, 4.0 mg/kg, Day 44) was 82.9% and the “% Reduction” value (Rhipicephalus sanguineus; Group 4: 6% in DES with 30% Capryol 90, 4.0 mg/kg, Day 2) was 97.2%. The “% Reduction” value (Rhipicephalus sanguineus; Group 4: 6% in DES with 30% Capryol 90, 4.0 mg/kg, Day 9) was 100.0%, the “% Reduction” value (Rhipicephalus sanguineus; Group 4: 6% in DES with 30% Capryol 90, 4.0 mg/kg, Day 16) was 100.0% and the “% Reduction” value (Rhipicephalus sanguineus; Group 4: 6% in DES with 30% Capryol 90, 4.0 mg/kg, Day 23) was 100.0%. The “% Reduction” value (Rhipicephalus sanguineus; Group 4: 6% in DES with 30% Capryol 90, 4.0 mg/kg, Day 30) was 98.4%, the “% Reduction” value (Rhipicephalus sanguineus; Group 4: 6% in DES with 30% Capryol 90, 4.0 mg/kg, Day 37) was 96.1% and the “% Reduction” value (Rhipicephalus sanguineus; Group 4: 6% in DES with 30% Capryol 90, 4.0 mg/kg, Day 44) was 78.1%. For the same compound, the “efficacy 48 hours after infestation” value (Rhipicephalus sanguineus; Treatment Group 2, throughout the six weeks of the study) was no less than 90%, the “efficacy 48 hours after infestation” value (Rhipicephalus sanguineus; Treatment Group 3, Day 9 through Day 44) was no less than 90% and the “concentration required to achieve 90% efficacy, lower than the concentration required from oral administration” value (A. americanum; dogs, topical vs oral) was “about 42%”. For the same compound, the “EC90 (concentration required to achieve 90% efficacy)” value (A. americanum; [1]) was 0.092 µg/mL (≈ 0.147 µM), the “EC90 (concentration required to achieve 90% efficacy)” value (A. americanum; oral dosage form) was 0.158 µg/mL (≈ 0.252 µM) and the “% Reduction” value (Ctenocephalides felis; Group 2: 6.0% in 40% DES/DMI, Day 1) was 100.0%. The “% Reduction” value (Ctenocephalides felis; Group 2: 6.0% in 40% DES/DMI, Day 8) was 100.0%, the “% Reduction” value (Ctenocephalides felis; Group 2: 6.0% in 40% DES/DMI, Day 15) was 100.0% and the “% Reduction” value (Ctenocephalides felis; Group 2: 6.0% in 40% DES/DMI, Day 22) was 100.0%. The “% Reduction” value (Ctenocephalides felis; Group 2: 6.0% in 40% DES/DMI, Day 29) was 100.0%, the “% Reduction” value (Ctenocephalides felis; Group 2: 6.0% in 40% DES/DMI, Day 36) was 100.0% and the “% Reduction” value (Ctenocephalides felis; Group 2: 6.0% in 40% DES/DMI, Day 43) was 99.2%. The “% Reduction” value (Ctenocephalides felis; Group 3: 12% in 40% DES/DMI, Day 1) was 100.0%, the “% Reduction” value (Ctenocephalides felis; Group 3: 12% in 40% DES/DMI, Day 8) was 100.0% and the “% Reduction” value (Ctenocephalides felis; Group 3: 12% in 40% DES/DMI, Day 15) was 100.0%. The “% Reduction” value (Ctenocephalides felis; Group 3: 12% in 40% DES/DMI, Day 22) was 100.0%, the “% Reduction” value (Ctenocephalides felis; Group 3: 12% in 40% DES/DMI, Day 29) was 100.0% and the “% Reduction” value (Ctenocephalides felis; Group 3: 12% in 40% DES/DMI, Day 36) was 100.0%. The “% Reduction” value (Ctenocephalides felis; Group 3: 12% in 40% DES/DMI, Day 43) was 100.0%.
